The target of this experiment is T1, purified catalytic domain of recombinant human TACE (rhTACEc) (Homo sapiens, UniProt P78536, N452Q/S266A).
T1 construct: rhTACEc, Residue 215 to 477 with two mutation (S266A and N452Q) and a 6× His tail; 6xHis (C); made in house; host or cells: baculovirus/Hi5 insect cells
The experiment in a line: TACE kinetic assay, cleavage of internally quenched peptide substrate SPDL-3. The experiment is classed as biochemical. How it is done: TACE activity is determined by a kinetic assay measuring the rate of increase in fluorescent intensity generated by TACE catalyzed cleavage of an internally quenched peptide substrate (SPDL-3). The purified catalytic domain of recombinant human TACE (rhTACEc, Residue 215 to 477 with two mutation (S266A and N452Q) and a 6× His tail) is used in the assay. It is purified from the baculovirus/Hi5 cells expression system using affinity chromatography. The substrate SPDL-3 is an internally quenched peptide (MCA-Pro-Leu-Ala-Gln-Ala-Val-Arg-Ser-Ser-Ser-Dpa-Arg-NH2), with its sequence derived from the pro-TNFα cleavage site. MCA is (7-Methoxycoumarin-4-yl)acetyl. Dpa is N-3-(2,4-Dinitrophenyl)-L-2,3-diaminopropionyl.
A 50 μl assay mixture contains 20 mM HEPES, pH 7.3, 5 mM CaCl2, 100 μM ZnCl2, 2% DMSO, 0.04% Methylcellulose, 30 μM SPDL-3, 70 pM rhTACEc and a test compound. RhTACEc is pre-incubated with the testing compound for 90 min. at 25° C. Reaction is started by addition of the substrate. The fluorescent intensity (excitation at 320 nm, emission at 405 nm) was measured every 45 seconds for 30 min. using a fluorospectrometer (GEMINI XS, Molecular Devices). Rate of enzymatic reaction is shown as Units per second. Effect of a test compound is shown as % of TACE activity in the absence of the compound.

Where [1] appears, read: Specific TACE inhibitory activity (Ki values).
The mark [2] stands for this setting: TACE inhibitory activity, class letters.

Four molecules from US7879997B2, “Compounds for the treatment of inflammatory disorders” (Schering Corporation, priority 2005, dated 2011) can be followed below.

T1 sequence (P78536 215-477 S266A/N452Q): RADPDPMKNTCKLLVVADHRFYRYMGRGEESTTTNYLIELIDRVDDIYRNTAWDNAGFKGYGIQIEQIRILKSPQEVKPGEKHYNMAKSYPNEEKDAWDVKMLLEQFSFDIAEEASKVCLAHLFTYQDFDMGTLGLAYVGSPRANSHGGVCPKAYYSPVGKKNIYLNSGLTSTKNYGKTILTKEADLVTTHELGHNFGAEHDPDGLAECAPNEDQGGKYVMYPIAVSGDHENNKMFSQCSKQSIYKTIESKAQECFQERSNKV

For orientation: Ki means the dissociation constant of the complex between target and ligand, obtained from inhibition or displacement. Consider `O=C(NO)[C@H]1NC(=O)[C@@H]1Cc1ccc(OCc2cc(-c3ccccc3)nc3ccccc23)cc1` [Compound C5], for which the Ki under setting [1] was 55 nM and the Ki under setting [2] was in the range of 20 to 100 nM.

In the case of `COC(=O)C(Oc1ccc(C[C@H]2C(=O)N[C@@H]2C(=O)NO)cc1)c1cc(-c2ccccc2)nc2ccccc12` (stereo partly shown) [Compound E3], under setting [2], the Ki lay in the range of 100 to 1000 nM.

Consider `CCOC(=O)[C@@]1(Cc2ccc(OCc3cc(-c4ccccc4)nc4ccccc34)cc2)CNC[C@@H]1C(=O)NO` [Compound A12], for which the Ki is, setting by setting: under setting [1], 59 nM; under setting [2], 20 to 100 nM.

Regarding `O=C1N[C@H](C(=O)NO)[C@@H]1Cc1ccc(OCc2cc(-c3ccccc3)nc3ccccc23)cc1` [Compound B8], the inhibition constant (Ki) under setting [1] is 11.7 nM and the Ki under setting [2] was under 20 nM.
